Entries after “also recorded” stand apart in the source; their conditions may differ.
Experiments:
EML4-ALK (F1174S) V3a = target: T1, EML4-ALK (F1174S) V3a (Homo sapiens, UniProt Q9HC35+Q9UM73, F1174S); conditions: NL20 cells, 0 nM to 1000 nM, pALK-Y1604 readout
T1 sequence (Q9HC35+Q9UM73 with tags, fused parts or gaps Q9UM73:F1174S): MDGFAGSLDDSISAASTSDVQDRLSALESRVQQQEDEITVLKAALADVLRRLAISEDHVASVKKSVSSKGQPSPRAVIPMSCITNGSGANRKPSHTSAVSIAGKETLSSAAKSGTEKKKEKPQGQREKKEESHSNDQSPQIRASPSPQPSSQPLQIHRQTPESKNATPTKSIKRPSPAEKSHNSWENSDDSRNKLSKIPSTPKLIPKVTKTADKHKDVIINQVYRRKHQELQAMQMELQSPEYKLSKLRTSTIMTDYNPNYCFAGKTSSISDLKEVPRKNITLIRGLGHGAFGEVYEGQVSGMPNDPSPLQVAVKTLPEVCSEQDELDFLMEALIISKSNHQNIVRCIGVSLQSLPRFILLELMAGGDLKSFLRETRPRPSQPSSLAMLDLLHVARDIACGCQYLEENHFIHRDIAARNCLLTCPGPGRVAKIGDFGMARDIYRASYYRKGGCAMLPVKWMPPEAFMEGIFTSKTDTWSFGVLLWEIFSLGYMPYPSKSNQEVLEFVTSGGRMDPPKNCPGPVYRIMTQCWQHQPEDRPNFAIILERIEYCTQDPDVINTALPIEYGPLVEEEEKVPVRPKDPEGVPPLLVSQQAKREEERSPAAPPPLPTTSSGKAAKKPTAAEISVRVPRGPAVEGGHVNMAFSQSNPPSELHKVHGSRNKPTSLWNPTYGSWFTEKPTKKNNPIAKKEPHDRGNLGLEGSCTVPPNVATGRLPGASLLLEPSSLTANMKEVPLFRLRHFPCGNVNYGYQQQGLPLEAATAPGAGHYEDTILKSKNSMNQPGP
Description: (§1) SK-N-AS cells were transfected with Lipofectamine 3000 (Invitrogen, Carlsbad. CA) following the manufacturer’s instruction. […] After 24-36 hours culture, cells were treated with serial dilutions of the indicated inhibitors for 2 hours.
Cells were washed with ice-cold PBS prior to harvest in lysis buffer [25 mM of Tris-Cl, pH7.5, 150 mM of NaCl, 1% (v/v) Triton X-100, 1 mM of DTT, and protease inhibitor cocktail]. Cell lysates were clarified by centrifugation at 14,000 rpm for 15 minutes at 4°C. Samples were boiled in 1x SDS sample buffer and analyzed by immunoblotting. Enhanced chemiluminescence (ECL) and fluorescence blot images were taken with LI-COR Odyssey FC instrument and Image Studio 5.2 software (Lincoln, NE). […] The intensity of different protein bands was quantified with Image Studio Lite 5.2 software (Lincoln, NE). Ratios were shown either directly or normalized. […] GraphPad Prism 6.0 was used to calculate IC50 values by fitting data to a log (inhibitor concentration) vs. normalized response (variable slope) equation.
We therefore tested the sensitivity of these EML4-ALK mutants to ALK inhibitors. […] Dose-dependent ALK activity responses were followed with anti-pALK-Y1604 as readout.
Dose-dependent ALK activity responses were followed employing anti-pALK-Y1604 as readout.

EML4-ALK F1174S NSCLC = conditions: one NSCLC patient, after resistance to crizotinib; alectinib 6 months, ceritinib 3 months, brigatinib 1 month
EML4-ALK V1 mRNA = assay: RT-PCR for EML4-ALK V1 mRNA after ALK inhibition in DFCI032 cells; type: cell-based, human; conditions: 30 nM lorlatinib, 24 hours
Description: Reverse transcription was performed with the SuperScript IV First-Strand Synthesis System (Invitrogen, Carlsbad. CA) following the manufacturer’s protocol. PCR was performed with DreamTaq Hot Start Green PCR Master Mix (ThermoScientific, Waltham, MA). The PCR primers used for ALK were 5’-[…]-3’ and 5’-[…]-3’; and the primers for Actin were 5’-[…]-3’ and 5’-[…]-3’.
as §1

[1] = test system: wildtype and F1174S mutant EML4-ALK V3a and EML4-ALK V3b; assay: Dose-dependent pALK-Y1604 response to crizotinib or lorlatinib in NL20 cells, wildtype and F1174S mutant V3a/b (immunoblot, qualitative); type: cell-based, human; conditions: 0 nM to 1000 nM, 2 hours

SMILES: COc1cc(N2CCC(N3CCN(C)CC3)CC2)ccc1Nc1ncc(Cl)c(Nc2ccccc2P(C)(C)=O)n1 [brigatinib]
- sensitivity of EML4-ALK (F1174S) V3a to ALK inhibition relative to EML4-ALK V3a (qualitative) (EML4-ALK (F1174S) V3a): strongest effect; also recorded: more sensitive
- clinical response to ALK TKI (EML4-ALK F1174S NSCLC): no detectable response

SMILES: Cc1cc(Nc2ncc(Cl)c(Nc3ccccc3S(=O)(=O)C(C)C)n2)c(OC(C)C)cc1C1CCNCC1 [ceritinib]
- sensitivity of EML4-ALK (F1174S) V3a to ALK inhibition relative to EML4-ALK V3a (qualitative) (EML4-ALK (F1174S) V3a): more sensitive
- clinical response to ALK TKI (EML4-ALK F1174S NSCLC): no detectable response

SMILES: C[C@H]1Oc2cc(cnc2N)-c2c(nn(C)c2C#N)CN(C)C(=O)c2ccc(F)cc21 [lorlatinib]
- ALK mRNA levels in response to treatment (EML4-ALK V1 mRNA): decreased ALK mRNA levels
- inhibition of ALK-Y1604 phosphorylation (qualitative) [1]: superior inhibition effect
